We go through twelve compounds from ChEMBL document CHEMBL1201862, “PubChem BioAssay data set” (2004).

Some test systems named below: A498; CAKI-1; COLO 205; HCT-116; HOP-92; HT-29; LOX IMVI; M14; NCI-H23; NCI-H522; RPMI-8226; SF-295; SF-539; SK-MEL-2; SR; TK-10; MDA-MB-435; NCI-H226; PC-3.
Holding throughout (experiment): inhibition of tumour cell growth, NCI panel, 48 h

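Test compounds were applied to cells in 96-well plates for 48 hours at 5 doses. Here, GI50 denotes the concentration required for 50% inhibition of growth.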 The source made the active and inactive calls. No stated cut-off is given here; in the data, active = GI50 up to about 1.1 µM and inactive = higher. A value given as a limit tells only on which side of the number the result lay.

For the compound `c1ccc2c(c1)C1=NCCN1c1ccccc1-2`, the GI50 was 3.18 µM (inactive) in the experiment on A498; 2.6 µM (inactive) in the experiment on CAKI-1; 1.38 µM (inactive) with COLO 205; 1.23 µM (inactive) in the experiment on HCT-116; 4.45 µM (inactive) with HOP-92; 2.41 µM (inactive) in the experiment on HT-29. For the same compound, the GI50 with LOX IMVI is 2.95 µM (inactive); with M14 it was 4.01 µM (inactive); in the experiment with NCI-H23 it was 2.72 µM (inactive); in the experiment on NCI-H522, 1.45 µM (inactive); in the experiment with RPMI-8226 it was 2.32 µM (inactive); in the experiment with SF-295 it was 5.09 µM (inactive). Further, the GI50 in the experiment with SF-539 is 2.78 µM (inactive); in the experiment on SK-MEL-2, 3.19 µM (inactive); in the experiment with SR it was 0.502 µM (active); in the experiment with TK-10, 2.49 µM (inactive).

As to `O=C(CNc1ccccc1Cl)Nn1c(-c2ccccc2)nc2ccccc2c1=O`, the GI50 is 49.8 µM (inactive) in the experiment on A498; 17.9 µM (inactive) with COLO 205; 25.2 µM (inactive) in the experiment with HCT-116; 13.4 µM (inactive) in the experiment on HOP-92; > 10 µM (inactive) with HT-29; 14.7 µM (inactive) in the experiment on LOX IMVI. Besides, the GI50 is > 10 µM (inactive) in the experiment with M14; 18.5 µM (inactive) in the experiment on MDA-MB-435; 28.5 µM (inactive) in the experiment on NCI-H226; 16.4 µM (inactive) in the experiment with NCI-H23; > 10 µM (inactive) in the experiment on NCI-H522; 20.7 µM (inactive) in the experiment with PC-3. Moreover, the GI50 with RPMI-8226 was 28.7 µM (inactive); with SF-295 it was 31.4 µM (inactive); in the experiment with SF-539, 21.6 µM (inactive); with SR, 23.4 µM (inactive); in the experiment with TK-10, 44 µM (inactive).

On to `O=C(OCc1ccccc1CN1CCOCC1)c1ccc(Br)cc1`, for which the GI50 with A498 was > 100 µM (inactive); in the experiment on COLO 205 it was 74.6 µM (inactive); in the experiment with HCT-116, 32.6 µM (inactive); in the experiment on HOP-92 it was 93.1 µM (inactive); in the experiment on HT-29, 20.5 µM (inactive); in the experiment on LOX IMVI, 55 µM (inactive). Moreover, the GI50 was 52.8 µM (inactive) in the experiment on M14; 31 µM (inactive) with MDA-MB-435; > 100 µM (inactive) in the experiment on NCI-H226; 39.4 µM (inactive) in the experiment on NCI-H23; 28.7 µM (inactive) with NCI-H522; 85.5 µM (inactive) with PC-3. Besides, the GI50 is 22.1 µM (inactive) in the experiment on RPMI-8226, > 100 µM (inactive) with SF-539, 36 µM (inactive) in the experiment with SK-MEL-2 and > 100 µM (inactive) in the experiment with TK-10.

For `Cc1ccc([S+]([O-])c2ccccc2[N+](=O)[O-])cc1` (stereo not given), the GI50 with A498 was 28.1 µM (inactive); with CAKI-1, 43.9 µM (inactive); with HCT-116, > 10 µM (inactive); in the experiment with HOP-92, 60 µM (inactive); in the experiment with HT-29, 69.3 µM (inactive); with LOX IMVI it was 38.5 µM (inactive). Also, the GI50 is > 100 µM (inactive) in the experiment with M14; 30.5 µM (inactive) in the experiment on NCI-H226; 32.6 µM (inactive) with NCI-H23; 33.3 µM (inactive) in the experiment on NCI-H522; 52.8 µM (inactive) with RPMI-8226; > 100 µM (inactive) with SF-295. The GI50 is 58.5 µM (inactive) in the experiment on SF-539, > 100 µM (inactive) in the experiment with SK-MEL-2, 46 µM (inactive) in the experiment with SR and > 100 µM (inactive) in the experiment with TK-10.

In the case of `S=C(Nc1cc(Cl)c(Cl)cc1Cl)SCc1ccccc1`, the GI50 is 32.9 µM (inactive) with A498; 22.6 µM (inactive) in the experiment with CAKI-1; 34.9 µM (inactive) with COLO 205; 32.3 µM (inactive) in the experiment with HCT-116; 21.3 µM (inactive) with HOP-92; 20.8 µM (inactive) with HT-29. The GI50 was 34.9 µM (inactive) in the experiment with M14; 19.8 µM (inactive) in the experiment on MDA-MB-435; 18.5 µM (inactive) with NCI-H226; 20.1 µM (inactive) in the experiment with NCI-H23; 24.3 µM (inactive) with NCI-H522; 32 µM (inactive) with PC-3. Besides, the GI50 in the experiment with RPMI-8226 is 21 µM (inactive); in the experiment with SF-295, 19.4 µM (inactive); with SF-539, 23.1 µM (inactive); with SK-MEL-2 it was > 100 µM (inactive); in the experiment with SR it was 0.0129 µM (active); in the experiment on TK-10, 24.7 µM (inactive).

Take `OC1OC2COC(c3ccccc3)OC2C(O)C1O` (stereo not given): the GI50 in the experiment with A498, in the experiment on CAKI-1, in the experiment on COLO 205, in the experiment with HCT-116, with HOP-92 and in the experiment with HT-29 was > 100 µM (inactive) each time. Besides, the GI50 with LOX IMVI, with M14, in the experiment with NCI-H226, with NCI-H23, in the experiment on NCI-H522 and in the experiment with RPMI-8226 was > 100 µM (inactive) each time. Moreover, the GI50 in the experiment on SF-295, with SF-539, in the experiment with SK-MEL-2 and in the experiment on TK-10 was > 100 µM (inactive) throughout.

In the case of `CCOC(=O)C(C)(C)Oc1ccc(/C=C/C(=O)c2ccc(Cl)cc2)cc1`, the GI50 is 20.2 µM (inactive) with A498; 24 µM (inactive) in the experiment with COLO 205; 16.4 µM (inactive) with HCT-116; 15.6 µM (inactive) in the experiment on HT-29; 16.6 µM (inactive) with LOX IMVI; 18.4 µM (inactive) in the experiment on M14. In addition, the GI50 in the experiment with NCI-H226 is 30 µM (inactive); in the experiment on NCI-H23, 18.6 µM (inactive); in the experiment with RPMI-8226, 10.9 µM (inactive); in the experiment with SF-295 it was 21 µM (inactive); in the experiment with SF-539, 19.5 µM (inactive); in the experiment with SK-MEL-2, 20.7 µM (inactive). In addition, the values for the GI50 with SR and with TK-10 were 27.3 µM (inactive) and 70.8 µM (inactive), respectively.

With `O=C(/C=C/c1ccccc1O)C(c1ccccc1)c1ccccc1`, the GI50 was > 100 µM (inactive) with A498; > 100 µM (inactive) in the experiment on CAKI-1; 39.3 µM (inactive) in the experiment with COLO 205; > 100 µM (inactive) in the experiment with HCT-116; > 100 µM (inactive) in the experiment with HOP-92; > 100 µM (inactive) in the experiment with HT-29. Further, the GI50 in the experiment with LOX IMVI is 24.1 µM (inactive); in the experiment with M14, > 100 µM (inactive); with NCI-H226, > 100 µM (inactive); in the experiment on NCI-H23, > 100 µM (inactive); with NCI-H522, 65.6 µM (inactive); in the experiment on RPMI-8226 it was 72.6 µM (inactive). The GI50 with SF-295, with SF-539, in the experiment on SK-MEL-2, in the experiment on SR and in the experiment with TK-10 was > 100 µM (inactive) each time.

Turning to `CS(=O)(=O)C1S(=O)(=O)OCCOS1(=O)=O`, the GI50 in the experiment with A498, in the experiment with CAKI-1, with COLO 205, in the experiment on HCT-116, in the experiment with HOP-92 and in the experiment on HT-29 was > 100 µM (inactive) each time. Besides, the GI50 was > 100 µM (inactive) in the experiment with LOX IMVI; > 100 µM (inactive) with M14; 7.93 µM (inactive) with NCI-H226; > 100 µM (inactive) in the experiment with NCI-H23; > 100 µM (inactive) in the experiment with NCI-H522; > 100 µM (inactive) in the experiment with RPMI-8226. Moreover, the GI50 with SF-295, with SF-539, in the experiment with SR and in the experiment with TK-10 was > 100 µM (inactive) throughout.

As for `O=C(NI1OC(=O)c2ccccc21)c1ccc(Cl)cc1`, the GI50 with A498, with CAKI-1, with COLO 205, in the experiment on HCT-116, in the experiment on HOP-92 and in the experiment with HT-29 was > 100 µM (inactive) each time. Moreover, the GI50 in the experiment with LOX IMVI is > 100 µM (inactive); in the experiment with M14, > 100 µM (inactive); in the experiment on MDA-MB-435, > 100 µM (inactive); with NCI-H226, 60.4 µM (inactive); in the experiment with NCI-H23, > 100 µM (inactive); with NCI-H522 it was 14.1 µM (inactive). The GI50 with PC-3, in the experiment on RPMI-8226, in the experiment with SF-295, in the experiment on SF-539, in the experiment on SK-MEL-2 and with TK-10 was > 100 µM (inactive) throughout.

On to `Cc1cn(C2CC(O)C(COC(=O)c3ccccc3)O2)c(=O)[nH]c1=O` (stereo not given), for which the GI50 in the experiment on A498, in the experiment on CAKI-1, in the experiment with COLO 205, in the experiment with HCT-116, in the experiment with HOP-92 and in the experiment with HT-29 was > 100 µM (inactive) each time. Besides, the GI50 with LOX IMVI, in the experiment with M14, with NCI-H23, in the experiment on NCI-H522, in the experiment on RPMI-8226 and in the experiment on SF-295 was > 100 µM (inactive) each time. In addition, the GI50 with SF-539, with SR and in the experiment on TK-10 was > 100 µM (inactive) throughout.

As to `CN(C)c1ccc(/C=C2\N=C(c3ccccc3)N(c3nc4ccc(Sc5ccccc5)cc4[nH]3)C2=O)cc1`, the GI50 in the experiment on A498 was 37.6 µM (inactive); in the experiment on CAKI-1 it was 35.4 µM (inactive); in the experiment with COLO 205, 21.6 µM (inactive); in the experiment with HCT-116, 36.3 µM (inactive); with HOP-92 it was 94.4 µM (inactive); in the experiment with HT-29, 32.4 µM (inactive). The GI50 is 45.2 µM (inactive) with LOX IMVI; 43.6 µM (inactive) with M14; 16.7 µM (inactive) in the experiment on MDA-MB-435; 47.1 µM (inactive) in the experiment on NCI-H23; 29.2 µM (inactive) in the experiment with NCI-H522; 39.1 µM (inactive) in the experiment with PC-3. The GI50 in the experiment with RPMI-8226 is 24.8 µM (inactive); in the experiment with SF-295, 23.6 µM (inactive); with SK-MEL-2, 20.8 µM (inactive); in the experiment on TK-10 it was 23.5 µM (inactive).
